ChEMBL document CHEMBL3885881, “DrugMatrix”

Species: Rattus norvegicus
Assay: DrugMatrix - Regimen: Daily Repeat
Assay type: toxicity, organism-based, Sprague-Dawley
Design: regimen Daily Repeat, gender Male, age 6-8 weeks
Conditions: in vivo, po, route oral GAVAGE, vehicle 100 % WATER; for ABSOLUTE BASOPHIL / ABSOLUTE EOSINOPHIL / ABSOLUTE LYMPHOCYTE / ABSOLUTE MONOCYTE / ABSOLUTE SEGMENTED NEUTROPHIL / BASOPHIL / EOSINOPHIL / ERYTHROCYTE COUNT / HEMATOCRIT / HEMOGLOBIN / LEUKOCYTE COUNT / LYMPHOCYTE / MEAN CORPUSCULAR HEMOGLOBIN / MEAN CORPUSCULAR HEMOGLOBIN CONCENTRATION / MEAN CORPUSCULAR VOLUME / MONOCYTE / NEUTROPHIL / NUCLEATED RED BLOOD CELLS / PLATELET COUNT: tissue Blood; for ALANINE AMINOTRANSFERASE / ALBUMIN / ALKALINE PHOSPHATASE / ASPARTATE AMINOTRANSFERASE / BLOOD UREA NITROGEN / CARBON DIOXIDE / CHLORIDE / CHOLESTEROL / CREATINE PHOSPHOKINASE / CREATININE / GLUCOSE / LACTATE DEHYDROGENASE / LIPASE / PHOSPHORUS / POTASSIUM / SODIUM / TOTAL BILIRUBIN / TOTAL PROTEIN / URIC ACID: tissue Plasma
[1] = 100 mg/kg, 120 h, dose level Low, time 5 day
[2] = 852 mg/kg, 72 h, dose level High, time 3 day
[3] = 852 mg/kg, 120 h, dose level High, time 5 day

SMILES: CC(C)(S)[C@@H](N)C(=O)O [PENICILLAMINE]
- ABSOLUTE BASOPHIL [1]: 0 CELLS/uL
- ABSOLUTE EOSINOPHIL [1]: 0 CELLS/uL
- ABSOLUTE LYMPHOCYTE [1]: 6617.67 CELLS/uL
- ABSOLUTE MONOCYTE [1]: 110.33 CELLS/uL
- ABSOLUTE SEGMENTED NEUTROPHIL [1]: 338.67 CELLS/uL
- BASOPHIL [1]: 0%
- EOSINOPHIL [1]: 0%
- ERYTHROCYTE COUNT [1]: 5.47 x10E6/uL
- HEMATOCRIT [1]: 34.93%
- HEMOGLOBIN [1]: 13.8 G/DL
- LEUKOCYTE COUNT [1]: 7.07 x10E3/uL
- LYMPHOCYTE [1]: 93.33%
- MEAN CORPUSCULAR HEMOGLOBIN [1]: 25.27 pg
- MEAN CORPUSCULAR HEMOGLOBIN CONCENTRATION [1]: 39.57 G/DL
- MEAN CORPUSCULAR VOLUME [1]: 63.93 fL
- MONOCYTE [1]: 1.67%
- NEUTROPHIL [1]: 5%
- NUCLEATED RED BLOOD CELLS [1]: 0 /100WBC
- PLATELET COUNT [1]: 1075.33 x10E3/uL
- ALANINE AMINOTRANSFERASE [1]: 51.33 u/L
- ALBUMIN [1]: 4.07 G/DL
- ALKALINE PHOSPHATASE [1]: 310.33 u/L
- ASPARTATE AMINOTRANSFERASE [1]: 74.33 u/L
- BLOOD UREA NITROGEN [1]: 13.67 mg/dL
- CARBON DIOXIDE [1]: 34 mmol/L
- CHLORIDE [1]: 99.67 MEQ/L
- CHOLESTEROL [1]: 68.67 mg/dL
- CREATINE PHOSPHOKINASE [1]: 197.67 u/L
- CREATININE [1]: 0.13 mg/dL
- GLUCOSE [1]: 152.67 mg/dL
- LACTATE DEHYDROGENASE [1]: 129 u/L
- LIPASE [1]: 9.67 u/L
- PHOSPHORUS [1]: 10.77 mg/dL
- POTASSIUM [1]: 6.13 MEQ/L
- SODIUM [1]: 144.33 MEQ/L
- TOTAL BILIRUBIN [1]: 0.17 mg/dL
- TOTAL PROTEIN [1]: 5.83 G/DL
- URIC ACID [1]: 1.17 mg/dL
- ABSOLUTE BASOPHIL [2]: 0 CELLS/uL
- ABSOLUTE EOSINOPHIL [2]: 0 CELLS/uL
- ABSOLUTE LYMPHOCYTE [2]: 6326 CELLS/uL
- ABSOLUTE MONOCYTE [2]: 89.33 CELLS/uL
- ABSOLUTE SEGMENTED NEUTROPHIL [2]: 351.33 CELLS/uL
- BASOPHIL [2]: 0%
- EOSINOPHIL [2]: 0%
- ERYTHROCYTE COUNT [2]: 5.64 x10E6/uL
- HEMATOCRIT [2]: 34.8%
- HEMOGLOBIN [2]: 13.1 G/DL
- LEUKOCYTE COUNT [2]: 6.77 x10E3/uL
- LYMPHOCYTE [2]: 93.67%
- MEAN CORPUSCULAR HEMOGLOBIN [2]: 23.23 pg
- MEAN CORPUSCULAR HEMOGLOBIN CONCENTRATION [2]: 37.67 G/DL
- MEAN CORPUSCULAR VOLUME [2]: 61.73 fL
- MONOCYTE [2]: 1.33%
- NEUTROPHIL [2]: 5%
- NUCLEATED RED BLOOD CELLS [2]: 0 /100WBC
- PLATELET COUNT [2]: 1143.33 x10E3/uL
- ALANINE AMINOTRANSFERASE [2]: 54.33 u/L
- ALBUMIN [2]: 4.2 G/DL
- ALKALINE PHOSPHATASE [2]: 349 u/L
- ASPARTATE AMINOTRANSFERASE [2]: 71.33 u/L
- BLOOD UREA NITROGEN [2]: 14 mg/dL
- CARBON DIOXIDE [2]: 30.33 mmol/L
- CHLORIDE [2]: 102.67 MEQ/L
- CHOLESTEROL [2]: 88.33 mg/dL
- CREATINE PHOSPHOKINASE [2]: 242 u/L
- CREATININE [2]: 0.12 mg/dL
- GLUCOSE [2]: 145.67 mg/dL
- LACTATE DEHYDROGENASE [2]: 117.67 u/L
- LIPASE [2]: 10 u/L
- PHOSPHORUS [2]: 9.27 mg/dL
- POTASSIUM [2]: 5.88 MEQ/L
- SODIUM [2]: 147.53 MEQ/L
- TOTAL BILIRUBIN [2]: 0.17 mg/dL
- TOTAL PROTEIN [2]: 6.2 G/DL
- URIC ACID [2]: 0.87 mg/dL
- ABSOLUTE BASOPHIL [3]: 0 CELLS/uL
- ABSOLUTE EOSINOPHIL [3]: 0 CELLS/uL
- ABSOLUTE LYMPHOCYTE [3]: 6605.67 CELLS/uL
- ABSOLUTE MONOCYTE [3]: 23.67 CELLS/uL
- ABSOLUTE SEGMENTED NEUTROPHIL [3]: 604 CELLS/uL
- BASOPHIL [3]: 0%
- EOSINOPHIL [3]: 0%
- ERYTHROCYTE COUNT [3]: 5.48 x10E6/uL
- HEMATOCRIT [3]: 33.73%
- HEMOGLOBIN [3]: 13.27 G/DL
- LEUKOCYTE COUNT [3]: 7.23 x10E3/uL
- LYMPHOCYTE [3]: 91.33%
- MEAN CORPUSCULAR HEMOGLOBIN [3]: 24.23 pg
- MEAN CORPUSCULAR HEMOGLOBIN CONCENTRATION [3]: 39.33 G/DL
- MEAN CORPUSCULAR VOLUME [3]: 61.63 fL
- MONOCYTE [3]: 0.33%
- NEUTROPHIL [3]: 8.33%
- NUCLEATED RED BLOOD CELLS [3]: 0 /100WBC
- PLATELET COUNT [3]: 1213.67 x10E3/uL
- ALANINE AMINOTRANSFERASE [3]: 35 u/L
- ALBUMIN [3]: 4.23 G/DL
- ALKALINE PHOSPHATASE [3]: 283.33 u/L
- ASPARTATE AMINOTRANSFERASE [3]: 59.33 u/L
- BLOOD UREA NITROGEN [3]: 13.33 mg/dL
- CARBON DIOXIDE [3]: 33.33 mmol/L
- CHLORIDE [3]: 99.67 MEQ/L
- CHOLESTEROL [3]: 61.33 mg/dL
- CREATINE PHOSPHOKINASE [3]: 202.33 u/L
- CREATININE [3]: 0.12 mg/dL
- GLUCOSE [3]: 131.67 mg/dL
- LACTATE DEHYDROGENASE [3]: 133 u/L
- LIPASE [3]: 9.67 u/L
- PHOSPHORUS [3]: 10.7 mg/dL
- POTASSIUM [3]: 6.12 MEQ/L
- SODIUM [3]: 144.2 MEQ/L
- TOTAL BILIRUBIN [3]: 0.2 mg/dL
- TOTAL PROTEIN [3]: 6.07 G/DL
- URIC ACID [3]: 1.23 mg/dL
